Assay results published in US8865894B2, “Oxazolidin-2-one compounds and uses thereof” (Novartis AG, priority 2012, dated 2014).

Biological target: PI3Kgamma (Homo sapiens, UniProt P48736)
Experiment: Biochemical PI3Kgamma (TR-FRET Adapta Universal Kinase Assay)
Conditions: mean of n measurements, read-out: PIK3g/ IC50
Procedure: Test compounds were dissolved in DMSO (10 mM) and transferred into 1.4 mL flat bottom or V-shaped Matrix tubes carrying a unique 2D matrix chip by individual Novartis compound hubs. The numbers of these chips were distinctively linked to Novartis Pharma Numbers. The stock solutions were stored at −20° C. if not used immediately. For the test procedure the vials were defrosted and identified by a scanner whereby a working sheet was generated that guided the subsequent working steps.
Compounds were either manually diluted in DMSO for individual experiments (96 wells enabling 10 cpds at 8 (single points) concentrations) as described in or prepared as described below if tested for profiling in 384-wells. This format enabled the assay of maximally 40 individual test compounds at 8 concentrations (single points) including 4 reference compounds. The dilution protocol included the production of “pre-dilution plates”, “master plates” and “assay plates”.
96 polypropylene well plates were used as pre-dilution plates. A total of 4 pre-dilution plates were prepared including 10 test compounds each on the plate positions A1-A10, one standard compound at A11 and one DMSO control at A12. Programs have been written to run these pipetting steps on the HamiltonSTAR robots.
100 μL of individual compound dilutions including standard compound and controls of the 4 “pre-dilution plates” were transferred into a 384 “master plate” including the following concentrations 1,820, 564, 182, 54.6, 18.2, 5.46, 1.82 and 0.546 μM, respectively in 90% DMSO.
Identical “assay plates” were then prepared by pipetting 50 nL each of compound dilutions of the “master plates” into 384-well “assay plates”. The compounds were mixed with 4.5 μL of assays components plus 4.5 μL enzyme corresponding to a 1:181 dilution enabling the final concentration of 10, 3.0, 1.0, 0.3, 0.1, 0.03, 0.01 and 0.003 μM, respectively. The preparation of the “master plates” was handled by the Matrix PlateMate Plus robot and replication of “assay plates” by the HummingBird robot.
The TR-FRET Adapta™ Universal Kinase Assay Kit was purchased from Invitrogen Corporation (Carlsbad/CA, USA) (Cat. No. PV5099). The kit contains the following reagents: Adapta Eu-anti-ADP Antibody (Europium labeled anti-ADP antibody in HEPES buffered saline, Cat. No. PV5097), Alexa Fluor® 647-labeled ADP tracer (Alexa Fluor® 647-labeled ADP tracer in HEPES buffered saline, Cat. No. PV5098), proprietary TR-FRET dilution buffer pH 7.5 (Cat. No. PV3574).
PIK3CD substrate Phosphatidylinositol was obtained from Invitrogen (vesicules consisting of 2 mM PI in 50 mM HEPES pH7.5; Cat. No. PV5371). PIK3CG substrate Phosphatidylinositol-4,5-bisphosphate (PIP(4,5)2 was obtained from Invitrogen (PIP2:PS large unilamellar vesicules consisting of 1 mM PIP2: 19 mM PS in 50 mM HEPES pH7.5, 3 mM MgCl2, 1 mM EGTA; Cat. No. PV5100).
Time-Resolved Fluorescence Resonance Energy Transfer (TR-FRET) is a technology based on energy transfer between two adjacent dyes, from an excited electron in one dye (the donor) to an electron of an adjacent dye (the acceptor) through resonance, then released as a photon. This energy transfer is detected by an increase in the fluorescence emission of the acceptor, and a decrease in the fluorescence emission of the donor. TR-FRET assays for protein kinases use a long-lifetime lanthanide Terbium or Europium chelates as the donor species which overcome interference from compound autofluorescence or light scatter from precipitated compounds, by introducing a delay after excitation by a flashlamp excitation source. Results are often expressed as a ratio of the intensities of the acceptor and donor fluorophores. The ratiometric nature of such a value corrects for differences in assay volumes between wells, as well as corrects for quenching effects due to colored compounds. The Adapta™ assay can be divided into two phases: a kinase reaction phase and an ADP detection phase. […]

Chain of PI3Kgamma (P48736 whole entry, species assumed): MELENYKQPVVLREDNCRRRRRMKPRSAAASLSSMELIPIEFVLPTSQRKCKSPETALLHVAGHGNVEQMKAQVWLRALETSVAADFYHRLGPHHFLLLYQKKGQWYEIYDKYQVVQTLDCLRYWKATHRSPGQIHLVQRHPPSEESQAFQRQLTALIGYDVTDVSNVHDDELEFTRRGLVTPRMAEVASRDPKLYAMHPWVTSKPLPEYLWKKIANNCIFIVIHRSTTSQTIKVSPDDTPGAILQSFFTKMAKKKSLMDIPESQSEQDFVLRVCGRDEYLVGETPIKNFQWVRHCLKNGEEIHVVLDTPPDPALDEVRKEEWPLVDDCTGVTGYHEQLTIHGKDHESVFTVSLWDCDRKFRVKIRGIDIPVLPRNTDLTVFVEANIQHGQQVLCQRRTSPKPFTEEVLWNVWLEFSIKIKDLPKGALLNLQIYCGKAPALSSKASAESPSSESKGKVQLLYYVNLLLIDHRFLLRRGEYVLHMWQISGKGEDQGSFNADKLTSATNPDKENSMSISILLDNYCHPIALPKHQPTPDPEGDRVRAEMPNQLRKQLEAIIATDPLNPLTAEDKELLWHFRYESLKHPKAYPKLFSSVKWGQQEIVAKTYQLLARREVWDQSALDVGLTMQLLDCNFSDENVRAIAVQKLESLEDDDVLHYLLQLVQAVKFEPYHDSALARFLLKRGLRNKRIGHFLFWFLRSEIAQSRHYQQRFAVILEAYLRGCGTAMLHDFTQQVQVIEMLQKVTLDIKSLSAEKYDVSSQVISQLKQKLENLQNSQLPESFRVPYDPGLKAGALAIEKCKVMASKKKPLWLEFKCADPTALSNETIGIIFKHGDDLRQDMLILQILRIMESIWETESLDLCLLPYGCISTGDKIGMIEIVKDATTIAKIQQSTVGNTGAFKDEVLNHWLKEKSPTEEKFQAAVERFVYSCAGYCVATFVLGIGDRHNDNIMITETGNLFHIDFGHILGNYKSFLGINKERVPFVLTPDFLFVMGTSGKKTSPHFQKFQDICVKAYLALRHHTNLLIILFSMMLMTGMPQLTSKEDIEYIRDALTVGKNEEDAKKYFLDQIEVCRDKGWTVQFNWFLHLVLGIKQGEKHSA

IC50: 207 nM
Compound: C[C@H]1[C@@H](CCO)OC(=O)N1c1cc(-c2cnc(N)nc2C(F)(F)F)nc(N2CCOCC2)n1 [Example 23, (4S,5R)-3-(2′-Amino-2-morpholino-4′-(trifluoromethyl)-[4,5′-bipyrimidin]-6-yl)-5-(2-hydroxyethyl)-4-methyloxazolidin-2-one]
